Assay results reported in paper PMC5668625 (Biochemistry and Biophysics Reports, 2015).

Target: human phosphoglucose isomerase (hPGI) / autocrine motility factor (Homo sapiens, UniProt P06744)
Assay: end-point isomerization kinetics
Assay type: biochemical

Ki: 12 µM
SMILES: O=C(O)[C@H](O)[C@@H](O)[C@H](O)[C@H](O)COP(=O)(O)O [6P-GA, 6-phosphogluconate]
